Laboratory results taken from patent US8173627B2, “Neuroprotective effect of solubilized UDCA in focal ischemic model” (priority 2004, dated 2012).

Test: HPLC bile acid analysis of plasma and brain
Type: in vivo, rat
Details: after UDCA and TUDCA administration
Method: Rats were separated into 5 groups, and each received a single injection of vehicle (n=18), 25 mg s-UDCA/Kg (n=9), 100 mg UDCA/Kg (n=18), 400 mg UDCA/kg (n=9), and 400 mg TUDCA/kg (n=9) intravenously immediately after reperfusion.
Blood and brain were collected 1 hour after s-UDCA, TUDCA, or vehicle injection, and were assessed by HPLC for bile acid analysis. Briefly, whole blood was drawn, clotted, and centrifuged and plasma was separated and frozen. After appropriate, humane anesthesia (5% chloral hydrate) and transcardial phosphate buffer perfusion, brains were removed, flash-frozen, and stored at −70° C. Free UDCA concentrations were measured by HPLC (JASCO HPLC Bile Acids Analysis System). Bile acids were assessed by HPLC according to, for example, U.S. patent application Ser. No. 09/778,154 filed Feb. 5, 2001, the full disclosure of which is hereby incorporated by reference.

C[C@H](CCC(=O)NCCS(=O)(=O)O)[C@H]1CC[C@H]2[C@@H]3[C@@H](O)C[C@@H]4C[C@H](O)CC[C@]4(C)[C@H]3CC[C@]12C [TUDCA, tauroursodeoxycholic acid]
TUDCA detected in brain as well as blood: not detected
